# Read-outs that look alike come from different tables or passages of the source. Starred links: 1 amine or outer side, 2 acyl side, 3 side chain; linkers in the order of their positions; H or OH if unused. Non-standard residues stand in square brackets, D forms with d. Residues, ends and D or L forms follow the SMILES beside them. Groups on a side chain read outwards from the residue. *: point of attachment. C18 diacid = O=C(O)CCCCCCCCCCCCCCCCC(=O)*; γGlu = O=C(O)[C@H](CCC(=O)[*:2])N[*:1]; AEEA = NCCOCCOCC(=O)O; Aib = CC(C)(N)C(=O)O
# Molecular target: T1, human CRF2α receptor (Homo sapiens, UniProt Q13324)
# T1 construct: expressed in transfected cells; host or cells: TeloHEAC
# T1 sequence (Q13324 1-411): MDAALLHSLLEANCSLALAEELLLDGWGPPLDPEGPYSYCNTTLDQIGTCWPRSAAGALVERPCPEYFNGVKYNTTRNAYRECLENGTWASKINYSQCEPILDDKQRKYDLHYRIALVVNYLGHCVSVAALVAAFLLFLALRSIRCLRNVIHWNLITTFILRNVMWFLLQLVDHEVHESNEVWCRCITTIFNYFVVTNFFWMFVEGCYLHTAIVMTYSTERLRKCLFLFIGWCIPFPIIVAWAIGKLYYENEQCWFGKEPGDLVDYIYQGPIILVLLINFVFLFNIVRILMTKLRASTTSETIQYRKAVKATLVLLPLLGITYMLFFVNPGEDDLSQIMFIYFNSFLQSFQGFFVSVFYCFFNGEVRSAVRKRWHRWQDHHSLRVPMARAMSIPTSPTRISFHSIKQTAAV
# Assay: cAMP agonism at human CRF2 α receptor in TeloHEAC cells (Example 7)
# Assay type: cell-based
# Settings: cAMP HTRF, TeloHEAC cells stably expressing human CRF2 α
# How it was run: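 Steps: thaw and wash cells; suspend in 1×HBSS, 20 mM HEPES, 0 or 0.1% HSA, 2 mM IBMX; add compound, 30 min RT; lyse with HTRF reagents, 1 h; read 665/620 nm. EC50 calculated, E% versus 1000 nM UCN2.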
# [1] = 0% HSA, read-out: EC50 [nM], 0% HSA
# [2] = 0.1% HSA, read-out: EC50 [nM], 0.1% HSA
Compound,EC50 [1] [nM],EC50 [2] [nM]
CC[C@H](C)[C@H](N)C(=O)N[C@H](C(=O)N[C@@H](CC(C)C)C(=O)N[C@@H](CO)C(=O)N[C@@H](CC(C)C)C(=O)N[C@@H](CC(=O)O)C(=O)N[C@H](C(=O)N1CCC[C@H]1C(=O)N[C@H](C(=O)N[C@@H](CCCCN)C(=O)N[C@@H](CC(C)C)C(=O)N[C@@H](CCCCNC(=O)COCCOCCNC(=O)COCCOCCNC(=O)CC[C@H](NC(=O)CCCCCCCCCCCCCCCCC(=O)O)C(=O)O)C(=O)N[C@@H](CCC(N)=O)C(=O)N[C@@H](CCCCN)C(=O)N[C@@H](CC(C)C)C(=O)N[C@@H](CC(C)C)C(=O)N[C@@H](CCCCN)C(=O)N[C@@H](CCC(N)=O)C(=O)N[C@@H](CCC(=O)O)C(=O)N[C@@H](CCCNC(=N)N)C(=O)N[C@@H](CCC(N)=O)C(=O)N[C@@H](CCCCN)C(=O)N[C@@H](CCCCN)C(=O)N[C@@H](CCC(N)=O)C(=O)N[C@@H](CCCNC(=N)N)C(=O)N[C@@H](CCC(=O)O)C(=O)N[C@@H](CCCCN)C(=O)N[C@@H](C)C(=O)N[C@@H](CCCCN)C(=O)N[C@H](C(=O)N[C@@H](CC(N)=O)C(=O)N[C@H](C(=O)N[C@@H](CCC(N)=O)C(=O)N[C@H](C(=O)N[C@@H](CC(C)C)C(=O)N[C@@H](C)C(=O)N[C@@H](CCC(N)=O)C(=O)N[C@H](C(N)=O)C(C)C)[C@@H](C)CC)C(C)C)[C@@H](C)O)[C@@H](C)CC)C(C)C)C(C)C [compound 93] (H-IVLSLDVPIKLK([AEEA-AEEA-γGlu-C18 diacid])QKLLKQERQKKQREKAKTNVQILAQV-NH2; N-terminus assumed),50.9,–
CC[C@H](C)[C@H](N)C(=O)N[C@H](C(=O)N[C@@H](CC(C)C)C(=O)N[C@@H](CO)C(=O)N[C@@H](CC(C)C)C(=O)N[C@@H](CC(=O)O)C(=O)N[C@H](C(=O)N1CCC[C@H]1C(=O)N[C@H](C(=O)N[C@@H](CCCCN)C(=O)N[C@@H](CC(C)C)C(=O)N[C@@H](CCCCNC(=O)COCCOCCNC(=O)COCCOCCNC(=O)CC[C@H](NC(=O)CCCCCCCCCCCCCCCCC(=O)O)C(=O)O)C(=O)N[C@@H](CCCCN)C(=O)N[C@H](C(=O)N[C@@H](CC(C)C)C(=O)N[C@@H](CC(C)C)C(=O)N[C@@H](CCCCN)C(=O)N[C@@H](CCC(N)=O)C(=O)N[C@@H](CCC(=O)O)C(=O)N[C@@H](CCCNC(=N)N)C(=O)N[C@@H](CCC(N)=O)C(=O)N[C@@H](CCCCN)C(=O)N[C@@H](CCCCN)C(=O)N[C@@H](CCC(=O)O)C(=O)N[C@@H](CCCNC(=N)N)C(=O)N[C@@H](CCC(=O)O)C(=O)N[C@@H](CCC(N)=O)C(=O)N[C@@H](C)C(=O)N[C@@H](CCC(=O)O)C(=O)N[C@H](C(=O)N[C@@H](CC(N)=O)C(=O)N[C@@H](CCCCN)C(=O)N[C@@H](CCC(N)=O)C(=O)N[C@H](C(=O)N[C@@H](CC(C)C)C(=O)N[C@@H](C)C(=O)N[C@@H](CCC(N)=O)C(=O)N[C@H](C(N)=O)C(C)C)[C@@H](C)CC)[C@@H](C)O)[C@@H](C)CC)[C@@H](C)CC)C(C)C)C(C)C [compound 94] (H-IVLSLDVPIKLK([AEEA-AEEA-γGlu-C18 diacid])KILLKQERQKKEREQAETNKQILAQV-NH2),1.73,49.1
CC[C@H](C)[C@H](N)C(=O)N[C@H](C(=O)N[C@@H](CC(C)C)C(=O)N[C@@H](CO)C(=O)N[C@@H](CC(C)C)C(=O)N[C@@H](CC(=O)O)C(=O)N[C@H](C(=O)N1CCC[C@H]1C(=O)N[C@H](C(=O)N[C@@H](CCCCN)C(=O)N[C@@H](CC(C)C)C(=O)N[C@@H](CCCCNC(=O)COCCOCCNC(=O)COCCOCCNC(=O)CC[C@H](NC(=O)CCCCCCCCCCCCCCCCC(=O)O)C(=O)O)C(=O)N[C@@H](CCC(N)=O)C(=O)N[C@@H](CCCCN)C(=O)N[C@@H](CC(C)C)C(=O)N[C@@H](CC(C)C)C(=O)N[C@@H](CCCCN)C(=O)N[C@@H](CCC(N)=O)C(=O)N[C@@H](CCC(=O)O)C(=O)N[C@@H](CCCNC(=N)N)C(=O)N[C@@H](CCC(N)=O)C(=O)N[C@@H](CCCCN)C(=O)N[C@@H](CCCCN)C(=O)N[C@@H](CCC(=O)O)C(=O)N[C@@H](CCCNC(=N)N)C(=O)N[C@@H](CCC(=O)O)C(=O)N[C@@H](CCC(N)=O)C(=O)N[C@@H](C)C(=O)N[C@@H](CCC(=O)O)C(=O)N[C@H](C(=O)N[C@@H](CC(N)=O)C(=O)N[C@@H](CCCCN)C(=O)N[C@@H](CCC(N)=O)C(=O)N[C@H](C(=O)N[C@@H](CC(C)C)C(=O)N[C@@H](C)C(=O)N[C@@H](CCC(N)=O)C(=O)N[C@H](C(N)=O)C(C)C)[C@@H](C)CC)[C@@H](C)O)[C@@H](C)CC)C(C)C)C(C)C [compound 95] (H-IVLSLDVPIKLK([AEEA-AEEA-γGlu-C18 diacid])QKLLKQERQKKEREQAETNKQILAQV-NH2; N-terminus assumed),25,–
CC[C@H](C)[C@H](N)C(=O)N[C@H](C(=O)N[C@@H](CC(C)C)C(=O)N[C@@H](CO)C(=O)N[C@@H](CC(C)C)C(=O)N[C@@H](CC(=O)O)C(=O)N[C@H](C(=O)N1CCC[C@H]1C(=O)N[C@H](C(=O)N[C@@H](CCCCN)C(=O)N[C@@H](CC(C)C)C(=O)N[C@@H](CCCCNC(=O)COCCOCCNC(=O)COCCOCCNC(=O)CC[C@H](NC(=O)CCCCCCCCCCCCCCCCC(=O)O)C(=O)O)C(=O)N[C@@H](CCC(N)=O)C(=O)N[C@@H](CCCCN)C(=O)N[C@@H](CC(C)C)C(=O)N[C@@H](CC(C)C)C(=O)N[C@@H](CCCCN)C(=O)N[C@@H](CCC(N)=O)C(=O)N[C@@H](CCC(=O)O)C(=O)N[C@@H](CCCNC(=N)N)C(=O)N[C@@H](CCC(N)=O)C(=O)N[C@@H](CCCCN)C(=O)N[C@@H](CCCCN)C(=O)N[C@@H](CCC(N)=O)C(=O)N[C@@H](CCCNC(=N)N)C(=O)N[C@@H](CCC(=O)O)C(=O)N[C@@H](CCC(N)=O)C(=O)N[C@@H](C)C(=O)N[C@@H](CCC(=O)O)C(=O)N[C@H](C(=O)N[C@@H](CC(N)=O)C(=O)N[C@@H](CCCCN)C(=O)N[C@@H](CCC(N)=O)C(=O)N[C@H](C(=O)N[C@@H](CC(C)C)C(=O)N[C@@H](C)C(=O)N[C@@H](CCC(N)=O)C(=O)N[C@H](C(N)=O)C(C)C)[C@@H](C)CC)[C@@H](C)O)[C@@H](C)CC)C(C)C)C(C)C [compound 97] (H-IVLSLDVPIKLK([AEEA-AEEA-γGlu-C18 diacid])QKLLKQERQKKQREQAETNKQILAQV-NH2),1.66,–
CC[C@H](C)[C@H](N)C(=O)N[C@H](C(=O)N[C@@H](CC(C)C)C(=O)N[C@@H](CO)C(=O)N[C@@H](CC(C)C)C(=O)N[C@@H](CC(=O)O)C(=O)N[C@H](C(=O)N1CCC[C@H]1C(=O)N[C@H](C(=O)N[C@@H](CCCCN)C(=O)N[C@@H](CC(C)C)C(=O)N[C@@H](CCCCNC(=O)COCCOCCNC(=O)COCCOCCNC(=O)CC[C@H](NC(=O)CCCCCCCCCCCCCCCCC(=O)O)C(=O)O)C(=O)N[C@@H](CCC(N)=O)C(=O)N[C@@H](CCCCN)C(=O)N[C@@H](CC(C)C)C(=O)N[C@@H](CC(C)C)C(=O)N[C@@H](CCCCN)C(=O)N[C@@H](CCC(N)=O)C(=O)N[C@@H](CCC(=O)O)C(=O)N[C@@H](CCCNC(=N)N)C(=O)N[C@@H](CCC(N)=O)C(=O)N[C@@H](CCCCN)C(=O)N[C@@H](CCCCN)C(=O)NC(C)(C)C(=O)N[C@@H](CCCNC(=N)N)C(=O)N[C@@H](CCC(=O)O)C(=O)N[C@@H](CCC(N)=O)C(=O)N[C@@H](C)C(=O)N[C@@H](CCC(=O)O)C(=O)N[C@H](C(=O)N[C@@H](CC(N)=O)C(=O)N[C@@H](CCCCN)C(=O)N[C@@H](CCC(N)=O)C(=O)N[C@H](C(=O)N[C@@H](CC(C)C)C(=O)N[C@@H](C)C(=O)N[C@@H](CCC(N)=O)C(=O)N[C@H](C(N)=O)C(C)C)[C@@H](C)CC)[C@@H](C)O)[C@@H](C)CC)C(C)C)C(C)C [compound 98] (H-IVLSLDVPIKLK([AEEA-AEEA-γGlu-C18 diacid])QKLLKQERQKK[Aib]REQAETNKQILAQV-NH2; N-terminus assumed),2.36,–
CC[C@H](C)[C@H](N)C(=O)N[C@H](C(=O)N[C@@H](CC(C)C)C(=O)N[C@@H](CO)C(=O)N[C@@H](CC(C)C)C(=O)N[C@@H](CC(=O)O)C(=O)N[C@H](C(=O)N1CCC[C@H]1C(=O)N[C@H](C(=O)N[C@@H](CCCCN)C(=O)N[C@@H](CC(C)C)C(=O)N[C@@H](CCCCNC(=O)COCCOCCNC(=O)COCCOCCNC(=O)CC[C@H](NC(=O)CCCCCCCCCCCCCCCCC(=O)O)C(=O)O)C(=O)N[C@@H](CCC(N)=O)C(=O)N[C@H](C(=O)N[C@@H](CC(C)C)C(=O)N[C@@H](CC(C)C)C(=O)N[C@@H](CCCCN)C(=O)N[C@@H](CCC(N)=O)C(=O)N[C@@H](CCC(=O)O)C(=O)N[C@@H](CCCNC(=N)N)C(=O)N[C@@H](CCC(N)=O)C(=O)N[C@@H](CCCCN)C(=O)NC(C)(C)C(=O)N[C@@H](CCC(N)=O)C(=O)N[C@@H](CCCNC(=N)N)C(=O)N[C@@H](CCC(=O)O)C(=O)N[C@@H](CCC(N)=O)C(=O)N[C@@H](C)C(=O)N[C@@H](CCC(=O)O)C(=O)N[C@H](C(=O)N[C@@H](CC(N)=O)C(=O)N[C@@H](CCCCN)C(=O)N[C@@H](CCC(N)=O)C(=O)N[C@H](C(=O)N[C@@H](CC(C)C)C(=O)N[C@@H](CCC(=O)O)C(=O)N[C@@H](CCCNC(=N)N)C(=O)N[C@H](C(N)=O)C(C)C)[C@@H](C)CC)[C@@H](C)O)[C@@H](C)CC)[C@@H](C)CC)C(C)C)C(C)C [compound 107] (H-IVLSLDVPIKLK([AEEA-AEEA-γGlu-C18 diacid])QILLKQERQK[Aib]QREQAETNKQILERV-NH2),0.81,16.1
